Data as given in article PMC9851200, “Multiparameter phenotypic screening for endogenous TFEB and TFE3 translocation identifies novel chemical series modulating lysosome function” (Autophagy, 2022).

How the values were obtained:
Format in all cases: binding
[1] = biological target: T1, kinases (KINOMEscan panel) (Homo sapiens, UniProt P29322); settings: kinase EPHA8; NEW KINOMEscan
T1 sequence (P29322 28-1005): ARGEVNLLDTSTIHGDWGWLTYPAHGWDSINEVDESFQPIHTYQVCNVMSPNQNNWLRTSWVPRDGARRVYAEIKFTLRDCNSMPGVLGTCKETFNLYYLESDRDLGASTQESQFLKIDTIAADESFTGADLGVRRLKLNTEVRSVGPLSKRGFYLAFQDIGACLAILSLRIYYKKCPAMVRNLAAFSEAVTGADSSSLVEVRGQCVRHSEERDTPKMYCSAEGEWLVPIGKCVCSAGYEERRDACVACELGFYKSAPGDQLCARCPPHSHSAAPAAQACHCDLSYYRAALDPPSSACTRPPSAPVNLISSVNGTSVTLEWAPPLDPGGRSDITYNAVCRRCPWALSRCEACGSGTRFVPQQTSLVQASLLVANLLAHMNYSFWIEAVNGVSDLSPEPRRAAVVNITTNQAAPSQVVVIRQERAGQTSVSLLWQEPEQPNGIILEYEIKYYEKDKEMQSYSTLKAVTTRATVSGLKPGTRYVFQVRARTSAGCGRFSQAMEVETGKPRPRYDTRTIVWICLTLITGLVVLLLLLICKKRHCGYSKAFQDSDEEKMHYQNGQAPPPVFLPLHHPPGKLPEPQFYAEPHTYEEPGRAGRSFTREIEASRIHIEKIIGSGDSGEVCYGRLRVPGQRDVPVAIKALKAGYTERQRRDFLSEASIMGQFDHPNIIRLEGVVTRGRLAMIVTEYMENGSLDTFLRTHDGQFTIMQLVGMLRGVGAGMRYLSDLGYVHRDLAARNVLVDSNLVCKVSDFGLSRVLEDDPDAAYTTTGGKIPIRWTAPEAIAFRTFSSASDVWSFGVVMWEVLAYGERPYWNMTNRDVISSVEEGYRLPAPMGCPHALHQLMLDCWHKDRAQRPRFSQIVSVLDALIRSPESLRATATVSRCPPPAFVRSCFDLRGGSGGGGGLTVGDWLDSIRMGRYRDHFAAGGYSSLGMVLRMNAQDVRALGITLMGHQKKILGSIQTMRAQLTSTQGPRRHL

[2] = biological target: T2, kinases (KINOMEscan panel) (Homo sapiens, UniProt Q8N568); settings: NEW KINOMEscan
T2 sequence (Q8N568 1-766): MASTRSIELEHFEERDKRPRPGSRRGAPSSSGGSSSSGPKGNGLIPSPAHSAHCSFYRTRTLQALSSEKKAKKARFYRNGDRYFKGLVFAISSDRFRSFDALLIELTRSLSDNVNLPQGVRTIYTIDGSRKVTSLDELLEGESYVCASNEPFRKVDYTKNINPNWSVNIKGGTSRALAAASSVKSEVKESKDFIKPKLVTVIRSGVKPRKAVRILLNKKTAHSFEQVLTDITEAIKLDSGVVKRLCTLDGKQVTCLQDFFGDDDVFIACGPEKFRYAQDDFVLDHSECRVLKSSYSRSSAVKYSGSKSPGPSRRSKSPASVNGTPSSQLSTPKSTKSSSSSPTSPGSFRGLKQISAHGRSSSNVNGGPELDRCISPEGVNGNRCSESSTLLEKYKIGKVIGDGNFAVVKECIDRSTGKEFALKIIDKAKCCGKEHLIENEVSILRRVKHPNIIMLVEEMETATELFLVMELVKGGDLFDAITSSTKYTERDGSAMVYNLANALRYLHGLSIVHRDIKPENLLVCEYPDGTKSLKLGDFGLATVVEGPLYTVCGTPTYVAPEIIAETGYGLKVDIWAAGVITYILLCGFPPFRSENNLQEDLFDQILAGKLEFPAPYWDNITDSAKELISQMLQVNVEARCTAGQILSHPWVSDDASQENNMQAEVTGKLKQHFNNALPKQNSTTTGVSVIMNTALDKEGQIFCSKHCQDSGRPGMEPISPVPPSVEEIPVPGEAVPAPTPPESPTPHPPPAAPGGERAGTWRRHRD

[3] = biological target: T3, kinases (KINOMEscan panel) (Homo sapiens, UniProt Q8TBX8); settings: PIP4K2C; NEW KINOMEscan
T3 sequence (Q8TBX8 1-421): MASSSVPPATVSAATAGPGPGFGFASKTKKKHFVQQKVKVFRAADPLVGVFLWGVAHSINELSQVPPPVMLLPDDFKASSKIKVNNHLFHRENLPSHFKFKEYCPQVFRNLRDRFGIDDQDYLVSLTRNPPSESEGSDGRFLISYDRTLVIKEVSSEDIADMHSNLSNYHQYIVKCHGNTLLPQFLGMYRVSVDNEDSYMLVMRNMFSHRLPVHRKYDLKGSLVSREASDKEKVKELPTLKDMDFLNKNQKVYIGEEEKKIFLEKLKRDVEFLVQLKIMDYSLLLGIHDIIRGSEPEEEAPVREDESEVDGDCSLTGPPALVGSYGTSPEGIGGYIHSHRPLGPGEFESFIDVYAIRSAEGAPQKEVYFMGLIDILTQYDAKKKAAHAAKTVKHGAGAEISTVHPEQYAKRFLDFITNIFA

[4] = biological target: kinases (KINOMEscan panel) (Homo sapiens, UniProt P53667); settings: kinase LIMK1; NEW KINOMEscan
Chain of kinases (KINOMEscan panel) (Homo sapiens, UniProt P53667) (P53667 whole entry): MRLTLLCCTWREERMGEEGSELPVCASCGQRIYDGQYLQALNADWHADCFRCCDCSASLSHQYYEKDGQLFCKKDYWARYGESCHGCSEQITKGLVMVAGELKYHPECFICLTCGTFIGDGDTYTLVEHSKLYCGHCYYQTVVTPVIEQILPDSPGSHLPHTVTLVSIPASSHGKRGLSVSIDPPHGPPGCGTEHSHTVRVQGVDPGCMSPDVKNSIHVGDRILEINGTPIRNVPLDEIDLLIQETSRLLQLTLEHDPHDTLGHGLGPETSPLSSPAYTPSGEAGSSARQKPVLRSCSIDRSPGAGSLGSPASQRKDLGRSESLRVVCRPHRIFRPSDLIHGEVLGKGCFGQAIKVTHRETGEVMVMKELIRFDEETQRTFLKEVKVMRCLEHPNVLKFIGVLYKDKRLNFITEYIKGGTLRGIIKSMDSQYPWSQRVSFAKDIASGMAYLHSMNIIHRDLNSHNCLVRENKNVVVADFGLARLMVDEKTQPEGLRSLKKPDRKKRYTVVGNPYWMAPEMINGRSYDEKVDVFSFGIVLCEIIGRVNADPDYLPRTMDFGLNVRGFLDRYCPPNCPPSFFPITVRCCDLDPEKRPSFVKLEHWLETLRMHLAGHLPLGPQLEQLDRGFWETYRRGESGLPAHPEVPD

[5] = biological target: kinases (KINOMEscan panel) (Homo sapiens, UniProt Q13523); settings: PRPF4B; NEW KINOMEscan
Chain of kinases (KINOMEscan panel) (Homo sapiens, UniProt Q13523) (Q13523 whole entry): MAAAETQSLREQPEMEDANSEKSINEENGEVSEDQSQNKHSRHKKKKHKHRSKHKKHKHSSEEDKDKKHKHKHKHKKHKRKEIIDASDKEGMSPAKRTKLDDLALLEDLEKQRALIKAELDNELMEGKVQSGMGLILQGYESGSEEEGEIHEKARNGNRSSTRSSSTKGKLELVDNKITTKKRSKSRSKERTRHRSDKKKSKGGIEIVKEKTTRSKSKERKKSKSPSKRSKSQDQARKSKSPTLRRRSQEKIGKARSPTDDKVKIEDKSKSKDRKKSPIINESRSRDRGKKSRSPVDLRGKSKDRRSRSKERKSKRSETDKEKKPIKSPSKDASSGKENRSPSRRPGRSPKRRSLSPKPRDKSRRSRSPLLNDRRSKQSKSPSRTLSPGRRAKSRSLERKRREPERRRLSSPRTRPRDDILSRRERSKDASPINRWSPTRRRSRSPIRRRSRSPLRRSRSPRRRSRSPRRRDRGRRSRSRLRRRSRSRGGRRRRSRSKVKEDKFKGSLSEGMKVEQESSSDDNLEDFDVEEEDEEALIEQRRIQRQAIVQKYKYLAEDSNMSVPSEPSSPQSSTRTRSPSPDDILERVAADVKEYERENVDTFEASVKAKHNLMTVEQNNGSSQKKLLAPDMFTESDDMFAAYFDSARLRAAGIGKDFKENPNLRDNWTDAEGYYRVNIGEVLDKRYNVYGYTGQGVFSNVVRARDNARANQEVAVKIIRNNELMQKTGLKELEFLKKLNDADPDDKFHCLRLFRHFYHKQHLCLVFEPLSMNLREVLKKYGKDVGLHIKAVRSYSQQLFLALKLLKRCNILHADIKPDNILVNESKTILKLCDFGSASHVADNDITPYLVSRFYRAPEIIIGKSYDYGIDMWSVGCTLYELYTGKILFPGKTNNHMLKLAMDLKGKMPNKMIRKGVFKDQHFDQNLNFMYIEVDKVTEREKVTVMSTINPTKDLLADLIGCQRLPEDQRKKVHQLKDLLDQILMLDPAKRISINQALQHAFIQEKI

[6] = biological target: T4, kinases (KINOMEscan panel) (Homo sapiens, UniProt Q16566); settings: CAMK4; NEW KINOMEscan
T4 sequence (Q16566 1-473): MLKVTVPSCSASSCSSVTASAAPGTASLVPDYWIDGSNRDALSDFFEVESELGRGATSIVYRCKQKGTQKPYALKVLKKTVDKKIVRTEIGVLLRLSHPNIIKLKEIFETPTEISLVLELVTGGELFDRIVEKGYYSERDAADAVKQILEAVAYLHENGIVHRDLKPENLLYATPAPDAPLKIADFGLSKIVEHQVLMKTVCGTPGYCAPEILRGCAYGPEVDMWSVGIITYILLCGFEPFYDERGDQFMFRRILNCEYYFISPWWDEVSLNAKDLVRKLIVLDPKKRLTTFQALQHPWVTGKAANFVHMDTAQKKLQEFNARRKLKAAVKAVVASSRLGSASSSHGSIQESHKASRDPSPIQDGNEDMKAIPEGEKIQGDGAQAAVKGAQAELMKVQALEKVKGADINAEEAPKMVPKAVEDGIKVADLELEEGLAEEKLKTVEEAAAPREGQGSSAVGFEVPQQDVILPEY

[7] = biological target: kinases (KINOMEscan panel) (Homo sapiens, UniProt P32298); settings: kinase GRK4; NEW KINOMEscan
Chain of kinases (KINOMEscan panel) (Homo sapiens, UniProt P32298) (P32298 whole entry): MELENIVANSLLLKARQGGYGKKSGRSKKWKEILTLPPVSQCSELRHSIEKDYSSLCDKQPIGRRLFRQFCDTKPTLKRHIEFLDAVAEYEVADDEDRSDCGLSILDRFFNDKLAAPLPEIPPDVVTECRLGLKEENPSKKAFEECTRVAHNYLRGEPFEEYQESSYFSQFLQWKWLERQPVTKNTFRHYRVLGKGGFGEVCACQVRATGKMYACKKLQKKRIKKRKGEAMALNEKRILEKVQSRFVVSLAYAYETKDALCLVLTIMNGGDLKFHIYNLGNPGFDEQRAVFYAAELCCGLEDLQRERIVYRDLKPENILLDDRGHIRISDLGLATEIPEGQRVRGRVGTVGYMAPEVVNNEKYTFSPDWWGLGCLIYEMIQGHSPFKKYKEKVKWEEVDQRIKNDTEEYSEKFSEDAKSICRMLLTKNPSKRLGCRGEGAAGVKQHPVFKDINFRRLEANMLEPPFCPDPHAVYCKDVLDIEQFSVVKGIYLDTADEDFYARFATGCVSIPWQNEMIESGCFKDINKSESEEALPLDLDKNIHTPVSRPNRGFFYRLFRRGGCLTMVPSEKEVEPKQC

Row | SMILES | KINOMEscan EPHA8 [1] | KINOMEscan DCLK2 [2] | KINOMEscan PIP4K2C [3] | KINOMEscan LIMK1 [4] | KINOMEscan PRPF4B [5] | KINOMEscan CAMK4 [6] | KINOMEscan GRK4 [7]
1 | Cc1cccc(-c2nc(Nc3ccc4nn(C)cc4c3)c3ccccc3n2)n1 [NK167] | 0 | 11 | 0 | 0 | 0 | 2 | 0
2 | Cc1cccc(-c2nc(N(C)c3ccc4ncsc4c3)c3ccccc3n2)n1 [NK-161] | 0 | 25 | 0 | 0 | 0 | 7 | 0
